The record followed here is PubChem BioAssay (NCI).

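Tested at 5 concentrations; 48 h exposure; 96-well plates; endpoints linearly interpolated, else capped at highest concentration. Definition used: TGI = concentration required for complete inhibition of growth.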

Some test systems named below: UACC-257 melanoma; LOX IMVI melanoma; MDA-N; NCI-H460 lung; U251 CNS; MCF7 breast; 786-0 renal; MOLT-4 leukemia; RPMI-8226 leukemia; NCI-H226 lung; MDA-MB-435.
Experiment in all cases: NCI anticancer screen, dose series, 48 h

On to `O=C1C(Cl)=C(c2ccc([N+](=O)[O-])cc2)C(=O)c2c(O)cccc21`, for which the TGI stood at 4.84 µM in the assay with UACC-257 melanoma; 3.6 µM in the assay on LOX IMVI melanoma; 6.53 µM in the assay with MDA-N; 6.99 µM in the assay with NCI-H460 lung; 2.22 µM in the assay on U251 CNS; 14.2 µM with MCF7 breast. Moreover, the TGI in the assay on 786-0 renal was 8.82 µM; in the assay on MOLT-4 leukemia it was above 100 µM; in the assay on RPMI-8226 leukemia it was above 100 µM; with NCI-H226 lung it was 5.74 µM; with MDA-MB-435, 4.8 µM.

Regarding `CCOC(=O)Cc1csc(N=Nc2c(O)[nH]c3ccccc23)n1`, the TGI with UACC-257 melanoma, in the assay on LOX IMVI melanoma, with MDA-N, in the assay on NCI-H460 lung, in the assay on U251 CNS and in the assay with MCF7 breast was above 100 µM in each case. Besides, the TGI in the assay on 786-0 renal was above 100 µM; in the assay on MOLT-4 leukemia, 73.1 µM; in the assay on RPMI-8226 leukemia, above 100 µM; in the assay on NCI-H226 lung, above 100 µM; in the assay on MDA-MB-435, above 100 µM.

Regarding `COc1cc2c(cc1O)CCN(C)[C@H]2Cc1ccc(Oc2c(O)c(OC)cc3c2C[C@H]2c4c(c(OC)c(OC)c(OC)c4-3)CCN2C)cc1`, the TGI turned out to be 13.4 µM in the assay with UACC-257 melanoma; 6.55 µM in the assay with LOX IMVI melanoma; 9.95 µM in the assay with MDA-N; 7.65 µM in the assay on NCI-H460 lung; 9.05 µM in the assay with U251 CNS; 10.7 µM with MCF7 breast. Also, the TGI in the assay with 786-0 renal turned out to be 9.4 µM; in the assay with MOLT-4 leukemia, 11 µM; with RPMI-8226 leukemia it was 5.09 µM; with NCI-H226 lung, 13.6 µM; in the assay on MDA-MB-435 it was 8.7 µM.

Regarding `COC(=O)/C=C1\C(=O)C=C2[C@@H]3C[C@H]4C[C@H](CC[C@@]4(C)N21)C3(C)NC(C)=O` (stereo partly specified), the TGI in the assay on UACC-257 melanoma was 52.5 µM; with LOX IMVI melanoma, above 100 µM; with MDA-N, 33.4 µM; in the assay on NCI-H460 lung, above 100 µM; in the assay with U251 CNS, above 56.9 µM; in the assay with MCF7 breast, 68.7 µM. The TGI in the assay with 786-0 renal is 14.3 µM; in the assay on MOLT-4 leukemia it was 34.3 µM; in the assay with RPMI-8226 leukemia it was above 100 µM; in the assay with NCI-H226 lung it was 55.1 µM; in the assay on MDA-MB-435, 28.5 µM.

For `O=c1nc2ccc3sc4ccccc4c(=O)c3n2c(=O)[nH]1`, the TGI in the assay with UACC-257 melanoma, in the assay on LOX IMVI melanoma, in the assay on MDA-N, in the assay on NCI-H460 lung, with U251 CNS and with MCF7 breast was above 100 µM each time. In addition, the TGI in the assay with 786-0 renal, in the assay on MOLT-4 leukemia, in the assay with RPMI-8226 leukemia, with NCI-H226 lung and with MDA-MB-435 was above 100 µM each time.

For the compound `COC1(OC)C=CC(=O)C=C1`, the TGI in the assay with UACC-257 melanoma was 8.48 µM; in the assay with LOX IMVI melanoma, 2.91 µM; in the assay with MDA-N, above 36.8 µM; in the assay on NCI-H460 lung, 19.7 µM; with U251 CNS, 4.9 µM; with MCF7 breast, 8.42 µM. In addition, the TGI in the assay with 786-0 renal was 4.55 µM; in the assay with MOLT-4 leukemia, above 95.2 µM; in the assay with RPMI-8226 leukemia, 13.5 µM; in the assay on NCI-H226 lung it was 10.4 µM; in the assay with MDA-MB-435 it was 12.8 µM.

Regarding `O=[N+]([O-])c1cc(F)ccc1Sc1ccccc1`, the TGI in the assay with UACC-257 melanoma, in the assay with LOX IMVI melanoma, in the assay with MDA-N, in the assay with NCI-H460 lung, with U251 CNS and in the assay on MCF7 breast was above 10 µM each time. The TGI in the assay on 786-0 renal, in the assay on MOLT-4 leukemia, in the assay with RPMI-8226 leukemia, with NCI-H226 lung and with MDA-MB-435 was above 10 µM in each case.

For `C=CCc1ccccc1C1CC2(C(=O)OC)OC1C(C(=O)OC)=C2C(=O)OC` (stereo unspecified), the TGI in the assay on UACC-257 melanoma, in the assay with LOX IMVI melanoma, in the assay with MDA-N, in the assay with NCI-H460 lung, in the assay with U251 CNS and with MCF7 breast was above 10 µM each time. Also, the TGI in the assay on 786-0 renal, with MOLT-4 leukemia, in the assay with RPMI-8226 leukemia, with NCI-H226 lung and with MDA-MB-435 was above 10 µM throughout.

Take `CCN(CC)C1Oc2cc3c(cc2C(c2cc(OC)c(OC)c(OC)c2)C1C)OCO3` (stereo unspecified): the TGI was above 100 µM with UACC-257 melanoma; above 48.8 µM in the assay on LOX IMVI melanoma; 0.456 µM with MDA-N; 22.5 µM in the assay on NCI-H460 lung; 6.89 µM in the assay with U251 CNS; above 50 µM with MCF7 breast. Besides, the TGI in the assay on 786-0 renal was above 40.6 µM; in the assay on MOLT-4 leukemia, 13.1 µM; in the assay on RPMI-8226 leukemia it was 20.2 µM; in the assay with NCI-H226 lung, 4.54 µM; in the assay on MDA-MB-435 it was 0.535 µM.

For `COc1cc2c(c(OC)c1)C(=O)O[C@H](C)CCCC/C=C/C2`, the TGI was above 33.9 µM in the assay on UACC-257 melanoma; 23 µM in the assay on LOX IMVI melanoma; 26.4 µM with MDA-N; above 32.6 µM with NCI-H460 lung; 30.5 µM in the assay with U251 CNS; above 32.6 µM in the assay with MCF7 breast. Also, the TGI with 786-0 renal is 27.5 µM; in the assay with MOLT-4 leukemia it was above 31.9 µM; with RPMI-8226 leukemia, 25.6 µM; with NCI-H226 lung, above 95.8 µM; with MDA-MB-435, 12.9 µM.

As for `CC(=O)Nc1ccc(/C=C2/NC(=S)N(/C=C3\C(=O)Oc4ccccc4C3=O)C2=O)cc1`, the TGI in the assay with UACC-257 melanoma, with LOX IMVI melanoma, in the assay on MDA-N, with NCI-H460 lung, in the assay on U251 CNS and in the assay on MCF7 breast was above 100 µM in each case. The TGI in the assay on 786-0 renal, with MOLT-4 leukemia, with RPMI-8226 leukemia, in the assay on NCI-H226 lung and in the assay on MDA-MB-435 was above 100 µM each time.

Regarding `Cc1ccc(NC2=N/C(=C/c3ccco3)C(Cl)=N2)cc1`, the TGI in the assay on UACC-257 melanoma, with LOX IMVI melanoma, in the assay on MDA-N, with NCI-H460 lung, with U251 CNS and with MCF7 breast was above 100 µM throughout. The TGI in the assay with 786-0 renal, with MOLT-4 leukemia, in the assay with RPMI-8226 leukemia, in the assay with NCI-H226 lung and in the assay with MDA-MB-435 was above 100 µM in each case.

On to `CNC(=O)N(CCC#N)CCCN(C(=O)N(C)C)c1ccccc1`, for which the TGI in the assay with UACC-257 melanoma, with LOX IMVI melanoma, in the assay with MDA-N, in the assay on NCI-H460 lung, with U251 CNS and in the assay with MCF7 breast was above 100 µM each time. Besides, the TGI with 786-0 renal, with MOLT-4 leukemia, in the assay with RPMI-8226 leukemia, in the assay with NCI-H226 lung and in the assay on MDA-MB-435 was above 100 µM in each case.

Take `COc1ccc(C2SCC(=O)N2NC(=O)C(C)Oc2ccc(Cl)cc2Cl)cc1` (stereo unspecified): the TGI with UACC-257 melanoma, with LOX IMVI melanoma, in the assay with MDA-N, in the assay with NCI-H460 lung, in the assay with U251 CNS and in the assay with MCF7 breast was above 100 µM each time. Further, the TGI is 41.7 µM in the assay with 786-0 renal; 94.6 µM in the assay on MOLT-4 leukemia; above 100 µM in the assay on RPMI-8226 leukemia; 33.6 µM with NCI-H226 lung; above 100 µM in the assay with MDA-MB-435.

For the compound `N#C/C(C(=O)Nc1ccccc1)=C(/N)N1CCCCC1`, the TGI with UACC-257 melanoma, in the assay on LOX IMVI melanoma, in the assay with MDA-N, in the assay with NCI-H460 lung, in the assay with U251 CNS and in the assay with MCF7 breast was above 100 µM throughout. Further, the TGI in the assay on 786-0 renal, with MOLT-4 leukemia, in the assay on RPMI-8226 leukemia, with NCI-H226 lung and in the assay with MDA-MB-435 was above 100 µM in each case.

Take `COC(=O)C1CC23C=CCN4CC(C2C)C2(c5ccccc5NC12)C43` (stereo unspecified): the TGI in the assay with UACC-257 melanoma, in the assay on LOX IMVI melanoma, with MDA-N, in the assay with NCI-H460 lung, with U251 CNS and in the assay on MCF7 breast was above 100 µM throughout. Besides, the TGI with 786-0 renal, in the assay with MOLT-4 leukemia, in the assay with RPMI-8226 leukemia, in the assay on NCI-H226 lung and in the assay with MDA-MB-435 was above 100 µM in each case.
